# Laboratory results published in paper PMC6895203, “Conformational pathway provides unique sensitivity to a synaptic mGluR” (Nature Communications, 2019).
# “And” between values parts separate entries of the source, which are not always exact repeats. Equal values may be shown once.
# Key:
# [1] = biological target: T1, mGluR7(K319C) (Rattus norvegicus, UniProt P35400, K319C); assay type: cell-based; settings: vs wild-type mGluR7
# T1 construct: expressed in transfected cells; host or cells: HEK293 / HEK293T
# T1 sequence (P35400 35-915 K319C): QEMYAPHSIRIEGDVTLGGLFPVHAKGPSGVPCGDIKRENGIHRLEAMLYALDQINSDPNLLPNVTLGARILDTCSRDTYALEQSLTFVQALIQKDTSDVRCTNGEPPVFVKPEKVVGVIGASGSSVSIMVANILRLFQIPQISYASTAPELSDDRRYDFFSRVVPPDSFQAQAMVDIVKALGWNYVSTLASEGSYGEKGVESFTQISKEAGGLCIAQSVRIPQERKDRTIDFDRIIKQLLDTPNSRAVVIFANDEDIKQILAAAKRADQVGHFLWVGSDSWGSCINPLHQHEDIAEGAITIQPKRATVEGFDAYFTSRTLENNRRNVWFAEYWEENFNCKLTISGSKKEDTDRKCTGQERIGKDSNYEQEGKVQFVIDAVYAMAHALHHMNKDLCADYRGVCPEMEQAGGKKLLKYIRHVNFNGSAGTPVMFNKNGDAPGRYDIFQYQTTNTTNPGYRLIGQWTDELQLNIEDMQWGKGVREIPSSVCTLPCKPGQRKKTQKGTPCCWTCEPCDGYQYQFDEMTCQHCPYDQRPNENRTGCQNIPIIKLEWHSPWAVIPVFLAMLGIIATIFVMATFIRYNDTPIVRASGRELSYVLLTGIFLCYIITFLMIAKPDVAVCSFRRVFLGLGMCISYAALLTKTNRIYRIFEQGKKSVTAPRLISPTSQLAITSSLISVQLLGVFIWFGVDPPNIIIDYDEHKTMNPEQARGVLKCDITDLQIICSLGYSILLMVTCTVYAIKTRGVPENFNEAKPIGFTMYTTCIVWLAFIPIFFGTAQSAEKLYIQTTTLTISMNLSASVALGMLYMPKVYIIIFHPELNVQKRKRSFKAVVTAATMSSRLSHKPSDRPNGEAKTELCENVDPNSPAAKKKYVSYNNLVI
# Text: (§1) Illumination was applied to the entire field of view using either a Polychrome V monochromator (TILL Photonics) through a 20× objective, or a Lambda DG4 high-speed wavelength switcher (Sutter Instruments) with 380 nm and 500 nm filters through a 40× objective. pClamp software was used for both data acquisition and control of illumination.
# [2] = biological target: T2, SNAP-mGluR2(F756D)/mGluR7 heterodimer (Rattus norvegicus, UniProt P31421+P35400, F756D); assay: Whole-cell patch clamp of GIRK1 current, trans-activation in SNAP-mGluR2(F756D)/mGluR7; assay type: cell-based; settings: for glutamate GIRK concentration-response relation compared to mGluR2/2: patch clamp
# T2 construct: HA (N); expressed in transfected cells; host or cells: HEK293 / HEK293T
# T2 sequence (P31421 19-872 F756D): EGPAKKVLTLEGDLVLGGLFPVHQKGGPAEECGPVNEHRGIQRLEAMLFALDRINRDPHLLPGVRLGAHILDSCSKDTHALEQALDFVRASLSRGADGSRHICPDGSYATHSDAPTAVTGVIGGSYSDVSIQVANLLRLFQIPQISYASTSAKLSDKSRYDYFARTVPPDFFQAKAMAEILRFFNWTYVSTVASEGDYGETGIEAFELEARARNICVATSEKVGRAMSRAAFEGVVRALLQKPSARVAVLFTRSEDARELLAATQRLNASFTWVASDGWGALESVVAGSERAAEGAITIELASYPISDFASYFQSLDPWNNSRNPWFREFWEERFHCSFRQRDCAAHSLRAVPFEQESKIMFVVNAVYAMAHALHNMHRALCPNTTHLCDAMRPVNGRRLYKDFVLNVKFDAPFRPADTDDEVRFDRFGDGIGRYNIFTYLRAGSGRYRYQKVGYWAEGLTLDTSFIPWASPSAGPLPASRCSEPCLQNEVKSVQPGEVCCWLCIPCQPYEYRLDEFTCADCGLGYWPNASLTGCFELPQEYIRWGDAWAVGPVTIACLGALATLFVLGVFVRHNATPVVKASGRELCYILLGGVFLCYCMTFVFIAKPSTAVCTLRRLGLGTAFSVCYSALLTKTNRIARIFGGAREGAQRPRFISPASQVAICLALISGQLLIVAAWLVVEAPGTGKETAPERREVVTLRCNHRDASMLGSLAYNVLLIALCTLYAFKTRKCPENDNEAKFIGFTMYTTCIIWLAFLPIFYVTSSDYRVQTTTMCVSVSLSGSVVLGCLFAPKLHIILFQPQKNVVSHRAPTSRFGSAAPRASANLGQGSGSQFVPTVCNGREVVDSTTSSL
# T2 sequence (P35400 35-915): as the sequence (P35400 35-915 K319C) above, with C285K counted along it
# Text: We explored this further by examining trans-activation, whereby binding of ligand to one subunit activates G-protein interaction in the partner subunit[46],[47]. To specifically activate only the mGluR2 subunit of the mGluR2/7 heterodimer, we selectively attached a photoswitched tethered ligand to mGluR2. […] SNAP-mGluR2(F756D) was co-expressed with wild-type mGluR7 along with the GIRK1 channel.
# as §1
# [3] = biological target: T3, SNAP-mGluR7/SNAP-mGluR7 homodimer (mGluR7/7) (Rattus norvegicus, UniProt P35400); assay: Live-cell ensemble FRET of SNAP-mGluR7/7 homodimer in HEK293T cells; assay type: cell-based; design: HA (N); made in house; host or cells: HEK293T
# T3 sequence (P35400 35-915): as the sequence (P35400 35-915 K319C) above, with C285K counted along it
# Experimental: (§2) After labeling, cells were mounted on an upright, scanning confocal microscope (Zeiss LSM 780) and imaged with a 20X objective. […] Clusters of cells were analyzed together and FRET was calculated as FRET = (IA)/(ID + IA), in which ID is the fluorescence donor intensity and IA is the fluorescence acceptor intensity. […] Fitting of dose–response curves was performed using Prism (Graphpad). […] Drugs were delivered with a gravity-driven perfusion system.
# [4] = biological target: T4, CLIP-mGluR2/SNAP-mGluR7 heterodimer (mGluR2/7) (Rattus norvegicus, UniProt P31421+P35400); assay: Live-cell ensemble FRET of mGluR2/7 heterodimer in HEK293 cells; assay type: cell-based; design: Flag (N); HA (N); made in house; host or cells: HEK293T; settings: for normalized FRET response (Figure 3c titration), AVG: right block
# T4 sequence (P31421 19-872): as the sequence (P31421 19-872 F756D) above, with D738F counted along it
# T4 sequence (P35400 35-915): as the sequence (P35400 35-915 K319C) above, with C285K counted along it
# Experimental: The co-expression of SNAP-mGluR7 and CLIP-mGluR2 is expected to yield three dimer stoichiometries: the homodimeric SNAP-mGluR7/SNAP-mGluR7; the homodimeric CLIP-mGluR2/CLIP-mGluR2, and the heterodimeric SNAP-mGluR7/CLIP-mGluR2. Of these, only the heterodimer combines the donor and acceptor and produces a FRET signal.
# as §2
# [5] = biological target: T3, SNAP-mGluR7/SNAP-mGluR7 homodimer (mGluR7/7); assay: smFRET on isolated immune-purified SNAP-mGluR7/7 dimers; settings: read-out: EC50 of low FRET peak concentration-response (apparent affinity); smFRET, isolated receptor
# [6] = biological target: T4, CLIP-mGluR2/SNAP-mGluR7 heterodimer (mGluR2/7); assay: smFRET on isolated CLIP-mGluR2/SNAP-mGluR7 heterodimers
# [7] = biological target: SNAP-mGluR2/SNAP-mGluR2 (mGluR2/2) (Rattus norvegicus, UniProt P31421); assay: Whole-cell patch clamp of GIRK1 current, mGluR2/2 homodimer; settings: mGluR2/2+GIRK; for titration values, single replicates 1-3: individual replicates; for titration values, AVG (normalized response): Supplemental Figure 1a
# SNAP-mGluR2/SNAP-mGluR2 (mGluR2/2), sequence (P31421 19-872): as the sequence (P31421 19-872 F756D) above, with D738F counted along it
smiles,measurement,setting,value
N[C@@H](CCC(=O)O)C(=O)O [glutamate],effect of K319C mutation on apparent affinity for glutamate (GIRK current),[1],did not alter the apparent affinity
same,"Norm. (100 nM Glu), average","[2]; 100 nM Glu normalised to 1 mM Glu, average of cells",0.158
same,"Norm. (1 uM Glu), average","[2]; 1 uM Glu normalised to 1 mM Glu, average of cells",0.4678
same,Norm. (1 uM Glu),"[2]; 1 uM Glu normalised to 1 mM Glu, single cells, listed as Glu",0.3693 and 0.5844 and 0.4728 and 0.4449
same,"Norm. (10 uM), average","[2]; 10 uM Glu normalised to 1 mM Glu, average of cells",0.7782
same,Norm. (10 uM),"[2]; 10 uM Glu normalised to 1 mM Glu, single cells, listed as Glu",0.7837 and 0.9099 and 0.6409
same,"Norm. (100 uM), average","[2]; 100 uM Glu normalised to 1 mM Glu, average of cells",0.9915
same,Norm. (100 uM),"[2]; 100 uM Glu normalised to 1 mM Glu, single cells, listed as Glu",1.055 and 0.9085 and 1.011
same,glutamate GIRK concentration-response relation compared to mGluR2/2,[2],shifted to the left
same,glutamate GIRK concentration-response relation compared to mGluR2/2,[2]; listed as Glutamate,left-shifted
same,FRET decrease,"[3]; 10 mM glutamate, live HEK293T cells",barely measurable FRET decrease
same,"fractional change in FRET (Figure 1c), Average","[3]; 10 mM glutamate, live cells",0.002
same,glutamate concentration required for a measurable response,[3]; live-cell ensemble FRET,10 mM
same,FRET change,"[3]; up to 1 mM glutamate, live HEK293T cells",no detectable FRET change
same,"major high affinity component, share of total ΔFRET",[4]; live-cell ensemble FRET,~ 80%
same,"minor lower affinity component, share of total ΔFRET",[4]; live-cell ensemble FRET,~ 20%
same,"normalized FRET response (Figure 3c titration), AVG","[4]; Glu 1uM, normalized to 10 mM",0.05708
same,"normalized FRET response (Figure 3c titration), AVG",[4]; Glu 2uM,0.1039
same,"normalized FRET response (Figure 3c titration), AVG",[4]; Glu 5uM,0.2535
same,"normalized FRET response (Figure 3c titration), AVG",[4]; Glu 10uM,0.4051
same,"normalized FRET response (Figure 3c titration), AVG",[4]; Glu 20uM,0.6543
same,"normalized FRET response (Figure 3c titration), AVG",[4]; Glu 50uM,0.6971
same,"normalized FRET response (Figure 3c titration), AVG",[4]; Glu 100uM,0.7929
same,"normalized FRET response (Figure 3c titration), AVG",[4]; Glu 200uM,0.7943
same,"normalized FRET response (Figure 3c titration), AVG",[4]; Glu 500uM,0.8921
same,"normalized FRET response (Figure 3c titration), AVG",[4]; Glu 1mM,0.9417
same,"normalized FRET response (Figure 3c titration), AVG",[4]; Glu 2mM,1.009
same,"normalized FRET response (Figure 3c titration), AVG",[4]; Glu 10mM (normalization point),1
same,EC50,[5],38.3 mM and 38 mM
same,occupancy of the low FRET active state,[6]; 10 μM glutamate,~ 50%
same,smFRET level,[6]; 10 mM glutamate,~ 0.2
same,"minor low affinity component, share",[6]; smFRET,~ 20%
same,occupancy of low FRET activated conformation at top of biphasic relation,[6]; smFRET,full occupancy
same,"major high affinity component (single-subunit liganding), share of maximal activation","[6]; smFRET, top of first component at 1 mM glutamate",~ 80%
same,"titration values, single replicates 1-3","[7]; Glu 1e-6, listed as Glu",0.1214 and 0.05844 and 0.0437
same,"titration values, AVG (normalized response)",[7]; Glu 1e-5,0.4456
same,"titration values, single replicates 1-3","[7]; Glu 1e-5, listed as Glu",0.4624 and 0.4291 and 0.4452
same,"titration values, AVG (normalized response)",[7]; Glu 0.0001,0.9358
same,"titration values, single replicates 1-3","[7]; Glu 0.0001, listed as Glu",0.9459 and 0.9335 and 0.9281
same,"titration values, AVG (normalized response)",[7]; Glu 0.001,1.022
same,"titration values, single replicates 1-3","[7]; Glu 0.001, listed as Glu",1.05 and 1.012 and 1.0027
same,"titration values, AVG (normalized response)",[7]; Glu 0.01 (normalisation point),1
same,"titration values, single replicates 1-3",[7]; Glu 0.01 (normalisation point),1
